Source: publication PMC3793931 (PLoS ONE, 2013)
Read-outs that look alike come from different tables or passages of the source.

Tests used:
5-LO = details: cited from earlier work
human recombinant 5-LO = molecular target: T1, human recombinant 5-LO (Homo sapiens, UniProt P09917); test: cell-free 5-LO activity assay with purified human recombinant 5-LO
T1 sequence (P09917 1-674): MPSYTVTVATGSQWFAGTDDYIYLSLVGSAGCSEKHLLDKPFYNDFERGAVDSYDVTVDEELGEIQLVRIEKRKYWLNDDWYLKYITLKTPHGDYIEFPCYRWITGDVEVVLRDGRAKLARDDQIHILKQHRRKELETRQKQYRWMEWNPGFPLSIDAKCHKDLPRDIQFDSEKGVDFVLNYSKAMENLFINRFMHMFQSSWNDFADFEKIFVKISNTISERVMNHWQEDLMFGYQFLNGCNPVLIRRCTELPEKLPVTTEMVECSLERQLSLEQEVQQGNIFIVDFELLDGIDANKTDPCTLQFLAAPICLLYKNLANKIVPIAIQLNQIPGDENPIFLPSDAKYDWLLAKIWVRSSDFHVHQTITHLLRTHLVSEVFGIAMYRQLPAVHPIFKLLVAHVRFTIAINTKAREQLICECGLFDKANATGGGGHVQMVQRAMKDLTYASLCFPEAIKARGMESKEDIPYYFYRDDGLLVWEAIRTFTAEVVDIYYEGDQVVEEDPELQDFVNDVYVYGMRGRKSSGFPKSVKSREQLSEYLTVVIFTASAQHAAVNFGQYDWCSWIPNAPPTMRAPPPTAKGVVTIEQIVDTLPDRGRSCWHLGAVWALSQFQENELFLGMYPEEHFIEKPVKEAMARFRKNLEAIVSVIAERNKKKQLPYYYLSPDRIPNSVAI

5-LO in PMNL = molecular target: T2, 5-LO in PMNL (Homo sapiens, UniProt P09917); test: cell-based; details: intact human PMNL, A23187 2.5 µM + 20 µM AA, n=3, >10 = significant inhibition at 10 µM, >>10 = no significant inhibition at 10 µM
T2 sequence (P09917 1-674): T1 sequence (P09917 1-674)
Procedure: The blood was centrifuged at 4,000×g for 20 min at 20°C for preparation of leukocyte concentrates. Leukocyte concentrates were subjected to dextran sedimentation and centrifugation on LSM 1077 cushions (PAA Laboratories, Linz, Austria). Contaminating erythrocytes of pelleted PMNL were lysed by hypotonic lysis. PMNL were washed twice in ice-cold PBS and finally resuspended in PBS pH 7.4 containing 1 mg/mL glucose and 1 mM CaCl2 (PGC buffer) (purity > 96-97%).
For determination of LO products in intact PMNL (5 × 10^6), cells were resuspended in 1 mL PGC buffer, preincubated for 15 min at 37°C with test compounds or vehicle (0.1% DMSO), and incubated for 10 min at 37°C with the indicated stimuli. Thus, the Ca^2+-ionophore A23187 (2.5 µM) was added together with 20 µM AA and 10 min later the reaction was stopped on ice by addition of 1 mL of ice-cold methanol. Then, 30 µL 1 N HCL and 500 µL PBS, and 200 ng prostaglandin B1 were added and the samples were subjected to solid phase extraction on C18-columns (100 mg, UCT, Bristol, PA, USA). 5-LO products (LTB4 and its trans-isomers and 5-H(P)ETE) were analyzed by RP-HPLC and quantities calculated on the basis of the internal standard PGB1.

[1] = molecular target: T3, microsomal prostaglandin E2 synthase-1 (mPGES-1) (Homo sapiens, UniProt O14684); test: biochemical; details: cell-free, A549 microsomes; n=3; >10 = significant inhibition at 10 µM, >>10 = no significant inhibition at 10 µM
T3 sequence (O14684 1-152): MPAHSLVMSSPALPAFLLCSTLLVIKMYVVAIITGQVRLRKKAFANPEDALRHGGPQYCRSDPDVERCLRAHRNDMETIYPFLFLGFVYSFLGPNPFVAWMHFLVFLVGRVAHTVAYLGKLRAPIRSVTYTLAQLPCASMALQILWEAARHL
Procedure: Preparations of human A549 cells and determination of mPGES-1 activity was performed as described previously [10]. In brief, cells were treated with 1 ng/mL interleukin-1β (IL-1β) for 48 h at 37 °C, 5% CO2. Cells were harvested, sonicated and the homogenate was subjected to differential centrifugation at 10,000×g for 10 min and 174,000×g for 1 h at 4 °C. The pellet (microsomal fraction) was resuspended in 1 ml homogenization buffer (0.1 M potassium phosphate buffer, pH 7.4, 1 mM phenylmethanesulfonyl fluoride, 60 µg/mL soybean trypsin inhibitor, 1 µg/mL leupeptin, 2.5 mM glutathione, and 250 mM sucrose), and the total protein concentration was determined. Microsomal membranes were diluted in potassium phosphate buffer (0.1 M, pH 7.4) containing 2.5 mM glutathione. Test compounds or vehicle (0.1% DMSO) were added, and after 15 min at 4 °C reaction (100 µl total volume) was initiated by addition of PGH2 at the indicated concentrations. After 1 min at 4 °C, the reaction was terminated using stop solution (100 µl; 40 mM FeCl2, 80 mM citric acid, and 10 µM 11β-PGE2 as internal standard). PGE2 was separated by solid-phase extraction and analyzed by RP-HPLC as described previously [10].

COX-1 = tested on: COX-1; design: method as in PMID 19289158; details: at 45 µM; cited from earlier work
COX-2 = tested on: COX-2; design: method as in PMID 19289158; details: at 45 µM; cited from earlier work
NF-κB = NF-κB transactivation, luciferase reporter in TNF-α-stimulated HEK-293/NF-κB-luc cells; assay type: cell-based; details: Homo sapiens
Procedure: The transactivation of a NF-κB-driven luciferase reporter gene was quantified in HEK-293/NF-κB-luc cells (Panomics, RC0014) as previously described. […] Six hours later cells were seeded in 96-well plates and incubated at 37°C and 5% CO2 overnight. On the next day, the medium was exchanged with serum-free DMEM and cells were treated with the respective test compounds dissolved in DMSO. To account for potential unspecific effects of the solvent, the final concentration of DMSO was always adjusted to 0.1%. One hour after treatment the cells were stimulated with 2 ng/mL human recombinant TNF-α for 6 h, and after a lysis step the luminescence of the firefly luciferase and the fluorescence of EGFP were quantified on a GeniosPro plate reader (Tecan; Grödig, Austria). The luciferase signal derived from the NF-κB reporter was normalized by the EGFP-derived fluorescence to account for differences in cell number.
To estimate of cell viability one part of the experiments were performed in cells that were not transfected with pEGFP-C1, but instead stained for 1 h in serum-free medium supplemented with 2 μM Cell Tracker Green CMFDA (C2925; Invitrogen) as described. Since this fluorescent probe is retained inside living cells, it can be used to monitor cell membrane integrity and thus has been broadly used to quantify viable cells. For quantification of NF-κB activity in this experimental setting the luciferase-derived signal from the NF-κB reporter was normalized to the Cell Tracker Green CMFDA-derived fluorescence to account for differences in cell number. Potential differences in cell viability were monitored by comparison of the Cell Tracker Green CMFDA fluorescence of the solvent vehicle treated control cells and cells treated with the indicated compounds.

[2] = molecular target: T4, inhibitor of NF-κB kinase subunit beta (IKK2) (Homo sapiens, UniProt O14920); test: IKK2 kinase inhibition; assay type: biochemical; details: at a concentration of up to 50 μM; data not shown
T4 sequence (O14920 1-756): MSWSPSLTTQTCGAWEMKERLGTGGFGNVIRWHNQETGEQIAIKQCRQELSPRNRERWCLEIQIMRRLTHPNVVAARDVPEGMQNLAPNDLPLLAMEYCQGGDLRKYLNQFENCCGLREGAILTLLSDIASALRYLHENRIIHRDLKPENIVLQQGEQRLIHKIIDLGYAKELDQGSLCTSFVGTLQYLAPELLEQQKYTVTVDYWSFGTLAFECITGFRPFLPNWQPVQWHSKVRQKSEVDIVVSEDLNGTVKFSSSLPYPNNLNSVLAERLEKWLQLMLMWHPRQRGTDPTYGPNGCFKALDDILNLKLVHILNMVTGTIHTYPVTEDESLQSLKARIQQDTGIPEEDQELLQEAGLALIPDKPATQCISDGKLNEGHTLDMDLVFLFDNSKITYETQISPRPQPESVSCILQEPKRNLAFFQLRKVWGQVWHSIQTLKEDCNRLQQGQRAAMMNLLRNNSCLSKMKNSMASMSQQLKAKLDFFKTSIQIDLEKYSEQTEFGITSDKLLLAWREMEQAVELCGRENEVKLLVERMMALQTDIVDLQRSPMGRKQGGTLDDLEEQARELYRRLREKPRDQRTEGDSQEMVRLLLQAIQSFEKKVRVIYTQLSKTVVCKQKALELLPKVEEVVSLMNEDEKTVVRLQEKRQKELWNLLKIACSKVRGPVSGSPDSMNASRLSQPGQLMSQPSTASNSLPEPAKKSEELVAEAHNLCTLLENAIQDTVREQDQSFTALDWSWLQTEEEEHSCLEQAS
Text: Luciferase reporter gene expression reflects a downstream event of the NF-κB signaling cascade and cannot provide insights into the molecular targets contributing to the observed NF-κB inhibition. Thus, we tested the active compounds 4 and 5 for their potential to suppress the activity of the inhibitor of NF-κB kinase subunit beta (IKK2) as previously described, since it is a prominent upstream target of the NF-κB signaling cascade. […] Accordingly, this kinase is not a direct target of the NF-κB inhibiting depsides 4 and 5.

B16-F10 melanoma cells = details: cited from earlier work
UACC-62 melanoma cells = details: cited from earlier work
[3] = tested on: leukocyte recruitment to the peritoneum; test: thioglycollate-induced peritonitis, leukocyte count in peritoneal lavage; assay type: in vivo, C57BL/6J mice; details: mouse
Text: C57BL/6J male, 8-9 weeks old mice were housed in individually ventilated cages and fed with mouse chow and acidified water ad libitum in the mouse facility of the Institute of Vascular Biology and Thrombosis Research (Vienna, Austria). Animal care and all experimental procedures were approved by the Animal Experimental Committee of the Medical University of Vienna and by the Austrian Ministry of Science (license no. BMWF-66.009/0117-II/3b/2012).
The mice of the treatment groups – sterile thioglycollate and perlatolic acid or thioglycollate alone - (3 animals per group) were pre-treated i.p. with 1 mL of 6 µM perlatolic acid or 1 µL of DMSO dissolved in 1 mL of saline. Thirty minutes later the animals were injected i.p. with another 3 mL of saline with or without sterile thioglycollate (4%), and containing again 2 μL DMSO or perlatolic acid. Five hours after the second injection mice were sacrificed by carbon dioxide exposure and peritoneal cavities were washed three times with 2 mL of cold PBS containing 3 mM EDTA and collected as intra-peritoneal lavage. The leukocyte count in the peritoneum of untreated control mice was assessed by lavage. Mice without thioglycollate treatment were used as controls. The volume of the collected lavage was measured and the cell count determined by haemocytometer.

12-LO = tested on: 12-LO; design: method as in PMID 15636173; details: cited from earlier work
[4] = HEK293, TNF-α-stimulated HEK-293/NF-κB-luc cells, n=3, read-out: NF-κB IC50

Structure (SMILES)	IC50 (human recombinant 5-LO)	IC50 (5-LO in PMNL)	IC50 [1]	further results
COc1cc(C)c(C(=O)Oc2cc(C)c(C(=O)O)c(O)c2C)c(O)c1C=O [baeomycesic acid]	–	–	–	IC50 (5-LO; read-out: 5-LO IC50): 8.3 µM
CCOC(=O)c1c(C)cc(O)c(C=O)c1O [compound 1, ethyl haematommate]	7.6 µM	> 10 µM	> 10 µM	–
COC(=O)c1c(C)cc(O)c(C)c1O [compound 2, methylbetaorcinolcarboxylate]	> 10 µM	> 10 µM	> 10 µM	–
COC(=O)c1c(C)cc(OC(=O)c2c(C)cc(O)c(C=O)c2O)c(C)c1O [compound 3, atranorin]	> 10 µM	> 10 µM	> 10 µM	activity against 5-LO (5-LO): inactive; COX-1 inhibition (COX-1): ~45%; COX-2 inhibition (COX-2): ~45%; IC50 (NF-κB; [4]): 20 µM
CCCCCc1cc(OC)cc(O)c1C(=O)Oc1cc(O)c(C(=O)O)c(CCC)c1 [compound 4, imbricaric acid]	3.5 µM	5.3 µM	1.9 µM	IC50 (NF-κB; HEK293, read-out: NF-κB IC50): 2 µM; IKK2 inhibition [2]: did not inhibit IKK2
CCCCCc1cc(OC(=O)c2c(O)cc(OC)cc2CCCCC)cc(O)c1C(=O)O [compound 5, perlatolic acid]	0.4 µM	1.8 µM	0.4 µM	cytotoxicity on B16-F10 melanoma cells (B16-F10 melanoma cells): moderate selective cytotoxicity; cytotoxicity on UACC-62 melanoma cells (UACC-62 melanoma cells): moderate selective cytotoxicity; reduction of thioglycollate-induced increase in total leukocyte count in peritoneal lavage fluid ([3]; i.p. co-administration, 5 h after TG injection, n=3, p<0.05): 30-40%; toxic effects observed in the animals ([3]; i.p., acute inflammation model): no hints of toxic effects; IC50 (NF-κB; [4]): 7 µM; IKK2 inhibition [2]: did not inhibit IKK2
CCCCCc1cc(OC)cc(O)c1C(=O)O [compound 6, 4-O-metylolivetolcarboxylic acid]	> 10 µM	> 10 µM	> 10 µM	–
CCCCCc1cc(OC)cc(O)c1C(=O)OCC [compound 7, ethyl-4-O-methylolivetolcarboxylate]	> 10 µM	> 10 µM	> 10 µM	–
CCCCCc1cc(O)cc(O)c1C(=O)OCC [compound 8, ethyl olivetolate]	> 10 µM	6.8 µM	> 10 µM	–
CCCCCc1cc(O)cc(OC)c1 [compound 9, olivetolmonomethylether]	7.2 µM	> 10 µM	> 10 µM	–
CCCCCc1cc(O)cc(O)c1 [compound 10, olivetol]	–	> 10 µM	> 10 µM	–
CCCc1cc(O)cc(O)c1 [compound 11, divarinol]	–	> 10 µM	> 10 µM	–
CCCCCc1c2c(cc(O)c1C(=O)O)OC(=O)c1c(cc(OC)cc1C(=O)CCCC)O2 [lobaric acid]	–	–	–	IC50 (5-LO; read-out: 5-LO IC50): ≥ 28.5 µM; IC50 (12-LO): ≥ 28.5 µM
C=C1C(=O)O[C@H]2[C@H]1CC/C(C)=C/CC[C@@]1(C)O[C@@H]21 [parthenolide, reference compound]	–	–	–	IC50 (NF-κB; [4]): 1.5 µM
